This experiment concerns the target human TRPA1 (Homo sapiens (Human), UniProt O75762). Put plainly: Measurement of TRPA1 antagonist activity (1): intracellular calcium increase. Format: cell-based. Conditions: 293T cells transfected with human TRPA1 expression plasmid; allylisothiocyanate 20 μM stimulation; intracellular calcium fluorescence; read-out: hTRPA1 IC50. The essentials: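 Calcium-flux readout of TRPA1 block: compound given 10 min before 20 μM (final) allylisothiocyanate, fluorescence tracked 5 min. Cells were 293T transiently expressing human TRPA1, dye-loaded 1 hr in HBSS, 20 mM HEPES, pH 7.2. Inhibition scaled between agonist-only and buffer-only responses; IC50 by sigmoid fitting.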

The structures appear in SMILES notation.

Consider twelve compounds from patent US10626112B2, “Heterocyclic sulfonamide derivative and medicine comprising same” (EA PHARMA CO., LTD., priority 2014, dated 2020).

Chain of human TRPA1 (O75762 whole entry): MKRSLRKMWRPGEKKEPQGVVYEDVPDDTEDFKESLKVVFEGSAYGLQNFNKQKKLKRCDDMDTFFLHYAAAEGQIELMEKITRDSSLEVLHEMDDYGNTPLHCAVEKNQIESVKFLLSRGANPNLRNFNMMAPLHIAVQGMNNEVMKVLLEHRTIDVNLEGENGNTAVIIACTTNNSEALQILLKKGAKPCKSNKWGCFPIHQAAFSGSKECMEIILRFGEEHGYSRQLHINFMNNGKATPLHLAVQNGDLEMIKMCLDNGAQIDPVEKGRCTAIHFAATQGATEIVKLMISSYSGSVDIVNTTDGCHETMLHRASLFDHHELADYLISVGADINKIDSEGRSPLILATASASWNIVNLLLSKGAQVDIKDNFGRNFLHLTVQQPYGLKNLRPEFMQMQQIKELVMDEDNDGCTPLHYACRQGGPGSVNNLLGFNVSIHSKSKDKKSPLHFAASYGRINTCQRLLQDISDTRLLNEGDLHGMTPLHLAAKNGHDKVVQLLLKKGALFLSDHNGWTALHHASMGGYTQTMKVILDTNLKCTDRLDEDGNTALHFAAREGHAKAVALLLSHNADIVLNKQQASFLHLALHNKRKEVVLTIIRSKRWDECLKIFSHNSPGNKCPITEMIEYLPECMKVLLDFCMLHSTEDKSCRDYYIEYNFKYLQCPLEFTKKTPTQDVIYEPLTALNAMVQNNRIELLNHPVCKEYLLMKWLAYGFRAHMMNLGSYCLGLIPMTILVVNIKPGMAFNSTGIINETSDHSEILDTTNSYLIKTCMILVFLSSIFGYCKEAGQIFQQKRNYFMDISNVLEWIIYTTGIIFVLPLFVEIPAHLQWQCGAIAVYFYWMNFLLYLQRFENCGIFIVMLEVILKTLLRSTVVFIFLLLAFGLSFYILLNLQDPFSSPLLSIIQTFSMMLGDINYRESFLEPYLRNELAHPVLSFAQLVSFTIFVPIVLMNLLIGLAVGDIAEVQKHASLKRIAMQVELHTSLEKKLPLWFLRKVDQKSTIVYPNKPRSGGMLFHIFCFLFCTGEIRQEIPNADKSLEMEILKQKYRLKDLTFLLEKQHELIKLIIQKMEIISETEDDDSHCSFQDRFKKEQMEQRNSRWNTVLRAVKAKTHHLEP

Regarding `O=C(NCc1cncc(-c2ccc(C(F)(F)F)cc2)c1)[C@@H]1CCCN1S(=O)(=O)c1cc2cc(F)ccc2o1` [Example 139, (2S)-1-(5-fluorobenzofuran-2-yl)sulfonyl-N-[[5-[4-(trifluoromethyl)phenyl]-3-pyridyl]methyl]pyrrolidine-2-carboxamide], the IC50 (commonly the concentration at which inhibition is half-maximal) was 3 nM. On to `O=C(NCc1cncc(-c2ccc(C(F)(F)F)nc2)c1)[C@@H]1CCCN1S(=O)(=O)c1cc2cc(F)ccc2o1` [Example 140, (2S)-1-(5-fluorobenzofuran-2-yl)sulfonyl-N-[[5-[6-(trifluoromethyl)-3-pyridyl]-3-pyridyl]methyl]pyrrolidine-2-carboxamide], for which the IC50 is 2.2 nM.

As for `O=C(NCc1cncc(-c2ccc(C(F)(F)F)cn2)c1)[C@@H]1CCCN1S(=O)(=O)c1cc2cc(F)ccc2o1` [Example 141, (2S)-1-(5-fluorobenzofuran-2-yl)sulfonyl-N-[[5-[5-(trifluoromethyl)-2-pyridyl]-3-pyridyl]methyl]pyrrolidine-2-carboxamide], the IC50 was found to be 3.3 nM.

In the case of `N#Cc1ccc(-c2cncc(CNC(=O)[C@@H]3CCCN3S(=O)(=O)c3cc4cc(F)ccc4o3)c2)cc1` [Example 142, (2S)-N-[[5-(4-cyanophenyl)-3-pyridyl]methyl]-1-(5-fluorobenzofuran-2-yl)sulfonyl-pyrrolidine-2-carboxamide], the IC50 was 24 nM.

Consider `O=C(NCc1cccc(-c2ccccc2O)n1)[C@@H]1CCCN1S(=O)(=O)c1cc2cc(F)ccc2o1` [Example 143, (2S)-1-(5-fluorobenzofuran-2-yl)sulfonyl-N-[[6-(2-hydroxyphenyl)-2-pyridyl]methyl]pyrrolidine-2-carboxamide], for which the IC50 turned out to be 260 nM.

As for `O=C(NCc1cccc(-c2ccc(C(F)(F)F)cc2)n1)[C@@H]1CCCN1S(=O)(=O)c1cc2cc(F)ccc2o1` [Example 144, (2S)-1-(5-fluorobenzofuran-2-yl)sulfonyl-N-[[6-[4-(trifluoromethyl)phenyl]-2-pyridyl]methyl]pyrrolidine-2-carboxamide], the half-inhibitory concentration (IC50) worked out at 47 nM. The same measure for `O=C(NCc1cccc(-c2ccc(C(F)(F)F)nc2)n1)[C@@H]1CCCN1S(=O)(=O)c1cc2cc(F)ccc2o1` [Example 145, (2S)-1-(5-fluorobenzofuran-2-yl)sulfonyl-N-[[6-[6-(trifluoromethyl)-3-pyridyl]-2-pyridyl]methyl]pyrrolidine-2-carboxamide]: 29 nM; for `N#Cc1ccc(-c2cccc(CNC(=O)[C@@H]3CCCN3S(=O)(=O)c3cc4cc(F)ccc4o3)n2)cc1` [Example 146, (2S)-N-[[6-(4-cyanophenyl)-2-pyridyl]methyl]-1-(5-fluorobenzofuran-2-yl)sulfonyl-pyrrolidine-2-carboxamide]: 310 nM. The same measure for `O=C(NCc1cccc(-c2ccc(C(F)(F)F)cc2O)n1)[C@@H]1CCCN1S(=O)(=O)c1cc2cc(F)ccc2o1` [Example 147, (2S)-1-(5-fluorobenzofuran-2-yl)sulfonyl-N-[[6-[2-hydroxy-4-(trifluoromethyl)phenyl]-2-pyridyl]methyl]pyrrolidine-2-carboxamide]: 180 nM; for `O=C(NCc1cc(-c2ccc(C(F)(F)F)cc2)ccn1)[C@@H]1CCCN1S(=O)(=O)c1cc2cc(F)ccc2o1` [Example 148, (2S)-1-(5-fluorobenzofuran-2-yl)sulfonyl-N-[[4-[4-(trifluoromethyl)phenyl]-2-pyridyl]methyl]pyrrolidine-2-carboxamide]: 2.2 nM. With `O=C(NCc1cc(-c2ccc(C(F)(F)F)nc2)ccn1)[C@@H]1CCCN1S(=O)(=O)c1cc2cc(F)ccc2o1` [Example 149, (2S)-1-(5-fluorobenzofuran-2-yl)sulfonyl-N-[[4-[6-(trifluoromethyl)-3-pyridyl]-2-pyridyl]methyl]pyrrolidine-2-carboxamide] the figure was 1.5 nM.

As for `N#Cc1ccc(-c2ccnc(CNC(=O)[C@@H]3CCCN3S(=O)(=O)c3cc4cc(F)ccc4o3)c2)cc1` [Example 150, (2S)-N-[[4-(4-cyanophenyl)-2-pyridyl]methyl]-1-(5-fluorobenzofuran-2-yl)sulfonyl-pyrrolidine-2-carboxamide], the IC50 worked out at 13 nM.
